Test results as given in patent US20250255829A1, “Multifunctional Nanoparticles and Uses in Managing Cancer and Cardiovascular Diseases” (Emory University, priority 2022, published 2025).

How the values were obtained:
atherosclerotic plaques = assay: Atherosclerotic plaque quantification from H&E stained aorta sections; assay type: in vivo, Apoe−/− mice; settings: for volumes of atherosclerotic plaques: 5 mg/kg study
Method: Apoe−/−mice bearing dual diseases received the treatment. After surgical resection of the primary tumors, tumor recurrence and mouse survival were monitored. Mice with tumor recurrence and reached the endpoint were sacrificed. Aorta tissues of the mice were collected at the time point. Serial frozen tissue sections were cut throughout the tissue blocks and stained with H&E. Size of plaques in all arteries of each of the H&E stained tissue sections were measured and total size of the plaques from eight tissue sections of each mouse was compared with the mean of the total plaque area of the no treatment control (100%). For PD1Y-HANP/Ava group that sacrificed at 120 days, an additional no treatment group that was time equivalent was used as a control for the progression of atherosclerosis.
Apoe−/−mice bearing subcutaneous mouse colon tumors were treated with different reagents every 3-4 days for three treatments. Three days following the last treatment, all mice were sacrificed, and aorta arteries were collected. Plaque volumes were quantified from serial H&E tissue sections. During 12 days of treatment, PD1Y-HANP/Avasimibe treated mice had 56% reduction of the total plaque volume in the dual disease mouse model.
Following treatments and by the end of the survival study, the aorta tissues were collected.
In order to enhance the therapeutic effect a combination of PD-L1 targeted delivery of HANP/Avasimibe was tested with uPAR targeted delivery of SN38 (7-Ethyl-10-hydroxycamptothecin), which is an active metabolite of irinotecan that is commonly used for the treatment of colon cancer. […] The effect of ATFmmp14-HANP/SN38 alone or in combination with PD1Y-HANP/Avasimibe at 5 mg/kg of Avasimibe and PD1Y peptide dose/injection was examined in a dual mouse colon cancer and atherosclerosis model. […] Significant reductions of the volumes of atherosclerotic plaques in all treatment groups were detected.

[1] = system: MC38 mouse colon cancer cells; assay: Cell proliferation assay; assay type: cell-based; settings: MC-38, read-out: IC50, inhibition of tumor cell proliferation
Excerpt: Hydrophobic 5β-cholanic acid was conjugated to HA (HACA) to promote self-assembly and assist in loading of hydrophobic drug molecule avasimibe (Ava). HANP/Ava is produced by self-assembling of HACA and avasimibe using a high-pressure homogenizer. Amount of encapsulated avasimibe could reach to 20% (w/w) in HANP/Ava. PD1Y-HANP/Ava was produced by conjugating chemically synthesized PD1Y peptides, mediated by cysteine of PD1Y and maleimide of a short-PEG (12×) linker (FIG. 1B). A ratio of PD1Y to HANP at 17:1 was used. If a high concentration of PD1Y peptides will be needed for improvement of immune checkpoint inhibition, the amount of PD1Y peptides could be further increased up to 200 peptides per HANP.

[2] = Targeted delivery by NIR optical imaging and NIR fluorescence microscopy; assay type: in vivo, Apoe−/− mice; settings: systemic (i.v.) delivery, 48 hrs
Method: Apoe^−/− (Apo E gene knock-out) mouse is a commonly used mouse model for atherosclerosis. […] Apoe^−/− mice developed s.c. tumors within 2-3 weeks and extensive atherosclerosis were found in the aortas, especially in the aorta arching. Targeted delivery of PD1Y-HANPs into tumors and atherosclerotic plaques is mediated by targeting PD-L1 (PD1Y) and CD44 (HANP) expressed in both tissues. To determine efficiency of targeted delivery, NIR 830 dye labeled-PD1Y-HANPs were injected i.v. into Apoe^−/− mice bearing mouse colon tumors. […] Histological analysis of H&E stained tissue sections using NIR fluorescence microscopy (Keyence) confirmed HANP signals in the plaques. PD1Y-HANPs were found as clusters in the stromal and tumor areas, with a higher level in necrotic tumor regions.
(§1) A uPAR targeted stroma-penetrating ligand (ATFmmp14) was developed containing the amino terminal fragment of uPA fused with the catalytic domain of MMP14. […] ATFmmp14 targets to tumor stromal fibroblasts and macrophages and MMP14 digests extracellular matrixes. […] Without PD1Y or ATFmmp14 conjugation, lower levels of HANP/Avasimibe were present in tumors and atherosclerotic plaques. Thus, uPAR targeted ATF or ATFmmp14 conjugated PD1Y-HANP/Avasimibe enhances delivery efficiency in both plaques and tumors in dual disease mouse model or PDX model.

[3] = Intratumoral delivery in colon PDX tumors; assay type: in vivo; settings: colon PDX tumors in NSG mice
Excerpt: as §1

[4] = system: s.c. mouse colon tumors (MC38); assay: Tumor growth in dual colon cancer and atherosclerosis mouse model; assay type: in vivo, Apoe−/− mice; settings: dual disease model
Method: Apoe^−/− mice on a high fat diet carrying s.c. mouse colon tumors (a dual disease model) received five i.v. treatments, once every three days, of 10 mg/kg of avasimibe or equivalent PD1Y-HANP/avasimibe, 10 mg/kg of PD1Y peptide equivalent of PD1Y-HANP or PD1Y. Residual tumors were surgically resected 6 days by surgery after the last therapy. Tumors were weighted.
Apoe−/−mice bearing s.c. MC38 tumors received i.v. treatments of 5 mg/kg of Avasimibe, 5 mg/kg of PD1Y peptide, or […] of SN38 equivalent dose of free drugs or nanoparticle drugs.
MC38 tumor specific IgG antibodies were detected in the mouse serum following PD1Y-HANP/Avasimibe treatment. […]
Apoe^−/− (Apo E gene knock-out) mouse is a commonly used mouse model for atherosclerosis. […] Histological analysis of H&E stained tissue sections using NIR fluorescence microscopy (Keyence) confirmed HANP signals in the plaques. […]
In order to enhance the therapeutic effect a combination of PD-L1 targeted delivery of HANP/Avasimibe was tested with uPAR targeted delivery of SN38 (7-Ethyl-10-hydroxycamptothecin), which is an active metabolite of irinotecan that is commonly used for the treatment of colon cancer. […] Significant reductions of the volumes of atherosclerotic plaques in all treatment groups were detected.

Q: With `CCc1c2c(nc3ccc(O)cc13)-c1cc3c(c(=O)n1C2)COC(=O)[C@]3(O)CC` [SN38, 7-Ethyl-10-hydroxycamptothecin] as the compound, how does the “volumes of atherosclerotic plaques” value (atherosclerotic plaques) read?
A: decreased

Q: For `CC(C)c1cc(C(C)C)c(CC(=O)NS(=O)(=O)Oc2c(C(C)C)cccc2C(C)C)c(C(C)C)c1` [avasimibe], which IC50 [1] is on record?
A: 28 µM

Q: And the “volumes of atherosclerotic plaques” value (atherosclerotic plaques)?
A: decreased

Q: And the “amount of the plaques (in words)” value (atherosclerotic plaques; following treatments and by the end of the survival study)?
A: significantly decreased

Q: For “ATFmmp14: amino terminal fragment of uPA fused with the catalytic domain of MMP14; uPAR targeted stroma-penetrating ligand”, which “delivery into tumors and atherosclerotic plaques” value [2] is on record?
A: high delivery efficiency

Q: What about the intratumoral delivery [3] of the same compound?
A: high level of intratumoral delivery

Q: With “NWNRLSPSNQTEKQAAPHHHHCGAISLHPKAKIEE [Unconjugated PD1Y peptide]” as the compound, how does the therapeutic efficacy [4] read?
A: did not show therapeutic efficacy
